Measurements reported in ChEMBL document CHEMBL3120096 (J Med Chem, 2014).
Converted amounts (≈) assume the structure as drawn.

How the values were obtained:
[1] = Oral bioavailability in cynomolgus monkey at 1 to 20 mg/kg; format: ADME, organism-based, Macaca fascicularis; conditions: in vivo
Homo sapiens = species on record: Homo sapiens; test: Selectivity ratio of Ki for JAK2 (unknown origin) to Ki for LRRK2 (unknown origin)
[2] = biological target: T1, Leucine-rich repeat serine/threonine-protein kinase 2 (Homo sapiens, UniProt Q5S007); test: Inhibition of LRRK2 (unknown origin)
T1 sequence (Q5S007 whole entry): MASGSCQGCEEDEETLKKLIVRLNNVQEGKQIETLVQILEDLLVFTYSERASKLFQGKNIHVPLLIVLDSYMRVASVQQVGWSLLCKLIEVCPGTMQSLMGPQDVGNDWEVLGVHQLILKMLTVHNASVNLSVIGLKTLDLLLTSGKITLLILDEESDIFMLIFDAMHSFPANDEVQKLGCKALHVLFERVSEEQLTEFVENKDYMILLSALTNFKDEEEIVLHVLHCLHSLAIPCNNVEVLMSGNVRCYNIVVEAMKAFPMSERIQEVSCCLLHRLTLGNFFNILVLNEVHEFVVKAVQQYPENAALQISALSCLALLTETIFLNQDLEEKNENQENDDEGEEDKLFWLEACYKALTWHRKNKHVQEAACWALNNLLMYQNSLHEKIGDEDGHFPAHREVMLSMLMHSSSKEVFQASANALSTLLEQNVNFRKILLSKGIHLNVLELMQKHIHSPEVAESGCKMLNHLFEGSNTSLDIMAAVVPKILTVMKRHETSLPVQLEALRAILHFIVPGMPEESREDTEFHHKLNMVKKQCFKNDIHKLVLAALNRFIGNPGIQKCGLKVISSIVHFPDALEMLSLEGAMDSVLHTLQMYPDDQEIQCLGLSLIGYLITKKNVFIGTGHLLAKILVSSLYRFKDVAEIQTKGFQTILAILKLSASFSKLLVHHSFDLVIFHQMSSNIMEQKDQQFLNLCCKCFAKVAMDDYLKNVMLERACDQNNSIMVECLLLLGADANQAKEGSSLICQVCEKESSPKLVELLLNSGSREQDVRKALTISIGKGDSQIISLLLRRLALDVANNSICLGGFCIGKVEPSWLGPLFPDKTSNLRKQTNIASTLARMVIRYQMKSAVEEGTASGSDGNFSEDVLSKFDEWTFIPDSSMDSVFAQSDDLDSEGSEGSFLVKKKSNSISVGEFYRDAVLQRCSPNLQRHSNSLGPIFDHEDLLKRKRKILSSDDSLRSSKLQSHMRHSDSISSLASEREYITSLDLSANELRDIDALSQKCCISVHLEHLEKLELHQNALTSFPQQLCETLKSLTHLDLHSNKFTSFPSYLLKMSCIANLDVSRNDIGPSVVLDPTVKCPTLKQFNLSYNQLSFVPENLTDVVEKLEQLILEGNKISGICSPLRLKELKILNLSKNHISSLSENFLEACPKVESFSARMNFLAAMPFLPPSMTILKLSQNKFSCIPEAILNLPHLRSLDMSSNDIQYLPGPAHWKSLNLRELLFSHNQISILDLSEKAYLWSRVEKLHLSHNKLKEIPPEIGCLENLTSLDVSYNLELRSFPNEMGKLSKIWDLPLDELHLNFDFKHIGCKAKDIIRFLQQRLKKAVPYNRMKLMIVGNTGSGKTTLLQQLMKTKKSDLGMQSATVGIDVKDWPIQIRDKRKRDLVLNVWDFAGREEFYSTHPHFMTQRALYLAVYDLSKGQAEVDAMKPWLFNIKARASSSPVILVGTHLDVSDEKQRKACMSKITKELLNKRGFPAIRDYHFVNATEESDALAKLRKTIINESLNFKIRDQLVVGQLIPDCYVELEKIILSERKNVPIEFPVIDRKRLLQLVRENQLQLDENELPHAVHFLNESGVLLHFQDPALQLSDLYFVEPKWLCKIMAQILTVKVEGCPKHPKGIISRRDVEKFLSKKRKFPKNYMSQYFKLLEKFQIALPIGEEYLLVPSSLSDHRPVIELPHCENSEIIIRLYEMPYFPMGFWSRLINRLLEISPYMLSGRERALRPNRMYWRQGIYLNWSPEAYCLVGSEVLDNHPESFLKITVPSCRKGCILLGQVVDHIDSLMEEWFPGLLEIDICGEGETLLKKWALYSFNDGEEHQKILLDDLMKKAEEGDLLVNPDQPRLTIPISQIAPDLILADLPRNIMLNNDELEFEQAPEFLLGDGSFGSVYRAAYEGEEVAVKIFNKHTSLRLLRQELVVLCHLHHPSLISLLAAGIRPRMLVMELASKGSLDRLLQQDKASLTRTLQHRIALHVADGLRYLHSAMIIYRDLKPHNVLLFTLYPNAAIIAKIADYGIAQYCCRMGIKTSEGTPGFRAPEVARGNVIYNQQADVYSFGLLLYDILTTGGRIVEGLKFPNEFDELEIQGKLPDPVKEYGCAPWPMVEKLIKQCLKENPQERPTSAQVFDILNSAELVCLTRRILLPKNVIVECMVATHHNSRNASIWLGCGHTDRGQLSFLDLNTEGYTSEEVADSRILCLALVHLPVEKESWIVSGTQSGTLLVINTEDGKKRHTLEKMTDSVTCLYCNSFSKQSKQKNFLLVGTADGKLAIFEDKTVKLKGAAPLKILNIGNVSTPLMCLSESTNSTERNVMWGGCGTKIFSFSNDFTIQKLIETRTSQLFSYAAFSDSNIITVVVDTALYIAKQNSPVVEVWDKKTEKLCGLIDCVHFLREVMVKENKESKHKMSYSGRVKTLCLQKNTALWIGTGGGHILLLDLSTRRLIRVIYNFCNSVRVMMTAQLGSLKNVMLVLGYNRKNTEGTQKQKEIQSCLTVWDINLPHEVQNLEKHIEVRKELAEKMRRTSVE

[3] = biological target: T1, Leucine-rich repeat serine/threonine-protein kinase 2; test: Inhibition of LRRK2 (unknown origin) phosphorylation by cell-based assay
Mus musculus = test: In vivo inhibition of human LRRK2 G2019S Parkinson's disease mutant expressed in BAC mouse assessed as inhibition of autophosphorylation at Ser1292 in brain at 10 to 50 mg/kg, ip after 1 to 6 hrs; format: functional, organism-based; set-up: dose 10-50 mg/kg, route intraperitoneal
[4] = Ratio of unbound drug level in brain to plasma in Sprague-Dawley rat; format: ADME, organism-based
[5] = biological target: Ribosomal protein S6 kinase alpha-6 (Homo sapiens) (UniProt Q9UK32); test: Inhibition of RSK4 (unknown origin) at 0.1 uM relative to control
Chain of Ribosomal protein S6 kinase alpha-6 (Homo sapiens) (Q9UK32 whole entry): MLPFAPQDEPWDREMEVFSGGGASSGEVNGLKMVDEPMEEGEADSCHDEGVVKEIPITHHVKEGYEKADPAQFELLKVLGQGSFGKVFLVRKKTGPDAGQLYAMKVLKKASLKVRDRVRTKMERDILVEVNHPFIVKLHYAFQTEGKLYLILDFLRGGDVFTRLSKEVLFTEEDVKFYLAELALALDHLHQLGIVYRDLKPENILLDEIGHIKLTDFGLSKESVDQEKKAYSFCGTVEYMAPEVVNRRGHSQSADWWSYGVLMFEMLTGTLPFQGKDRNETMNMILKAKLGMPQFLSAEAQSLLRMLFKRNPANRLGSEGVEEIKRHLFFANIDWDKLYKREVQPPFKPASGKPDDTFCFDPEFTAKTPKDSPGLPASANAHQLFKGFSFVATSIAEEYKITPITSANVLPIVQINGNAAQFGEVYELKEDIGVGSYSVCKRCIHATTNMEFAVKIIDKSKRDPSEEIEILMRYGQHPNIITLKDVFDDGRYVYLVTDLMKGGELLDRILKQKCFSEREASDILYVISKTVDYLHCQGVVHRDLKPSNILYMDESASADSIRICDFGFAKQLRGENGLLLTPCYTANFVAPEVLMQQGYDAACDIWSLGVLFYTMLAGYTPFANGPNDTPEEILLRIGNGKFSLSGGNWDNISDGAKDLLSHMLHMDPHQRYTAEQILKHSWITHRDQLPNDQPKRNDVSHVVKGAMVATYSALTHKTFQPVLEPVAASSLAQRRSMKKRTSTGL

Hepatocyte = test: Drug metabolism in human hepatocytes assessed as glucuronidated parent compound level after 3 hrs; format: ADME, cell-based
[6] = Clearance in rat hepatocytes at 1 uM by LC-MS/MS analysis; format: ADME, cell-based, Hepatocyte
[7] = Clearance in cynomolgus monkey at 1 mg/kg, po and 0.5 mg/kg, iv; format: ADME, organism-based, Macaca fascicularis; conditions: in vivo
[8] = Clearance in Sprague-Dawley rat at 1 mg/kg, po and 0.5 mg/kg, iv; format: ADME, organism-based; conditions: in vivo
[9] = biological target: T2, Dual specificity protein kinase TTK (Homo sapiens, UniProt P33981); test: Inhibition of TTK (unknown origin)
T2 sequence (P33981 whole entry): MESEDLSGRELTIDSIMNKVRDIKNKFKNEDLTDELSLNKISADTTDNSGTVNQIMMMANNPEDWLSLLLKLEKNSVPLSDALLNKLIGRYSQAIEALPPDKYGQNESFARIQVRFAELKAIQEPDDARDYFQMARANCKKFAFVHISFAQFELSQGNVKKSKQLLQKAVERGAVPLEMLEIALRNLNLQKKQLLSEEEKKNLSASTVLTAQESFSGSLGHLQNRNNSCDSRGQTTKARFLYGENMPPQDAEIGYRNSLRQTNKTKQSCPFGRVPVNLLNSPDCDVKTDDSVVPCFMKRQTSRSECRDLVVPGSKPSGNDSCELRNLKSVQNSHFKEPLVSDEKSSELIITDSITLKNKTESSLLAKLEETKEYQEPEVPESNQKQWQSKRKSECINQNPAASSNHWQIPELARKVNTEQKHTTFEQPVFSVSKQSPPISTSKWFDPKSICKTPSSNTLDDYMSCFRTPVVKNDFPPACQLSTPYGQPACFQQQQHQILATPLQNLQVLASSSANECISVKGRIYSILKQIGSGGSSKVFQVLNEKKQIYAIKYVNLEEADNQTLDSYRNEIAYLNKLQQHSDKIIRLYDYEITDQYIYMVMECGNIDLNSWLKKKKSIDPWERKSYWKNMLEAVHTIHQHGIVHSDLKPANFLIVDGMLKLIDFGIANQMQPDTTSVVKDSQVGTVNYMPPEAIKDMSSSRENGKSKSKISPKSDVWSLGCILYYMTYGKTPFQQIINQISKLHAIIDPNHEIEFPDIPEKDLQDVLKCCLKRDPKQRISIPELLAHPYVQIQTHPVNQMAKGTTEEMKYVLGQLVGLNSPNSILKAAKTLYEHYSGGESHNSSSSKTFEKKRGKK

Cytochrome P450 1A2 [10] = biological target: T3, Cytochrome P450 1A2 (Homo sapiens, UniProt P05177); test: Reversible inhibition of CYP1A2 in human liver microsomes using phenacetin as substrate by mass spectrophotometric analysis; format: ADME
T3 sequence (P05177 whole entry): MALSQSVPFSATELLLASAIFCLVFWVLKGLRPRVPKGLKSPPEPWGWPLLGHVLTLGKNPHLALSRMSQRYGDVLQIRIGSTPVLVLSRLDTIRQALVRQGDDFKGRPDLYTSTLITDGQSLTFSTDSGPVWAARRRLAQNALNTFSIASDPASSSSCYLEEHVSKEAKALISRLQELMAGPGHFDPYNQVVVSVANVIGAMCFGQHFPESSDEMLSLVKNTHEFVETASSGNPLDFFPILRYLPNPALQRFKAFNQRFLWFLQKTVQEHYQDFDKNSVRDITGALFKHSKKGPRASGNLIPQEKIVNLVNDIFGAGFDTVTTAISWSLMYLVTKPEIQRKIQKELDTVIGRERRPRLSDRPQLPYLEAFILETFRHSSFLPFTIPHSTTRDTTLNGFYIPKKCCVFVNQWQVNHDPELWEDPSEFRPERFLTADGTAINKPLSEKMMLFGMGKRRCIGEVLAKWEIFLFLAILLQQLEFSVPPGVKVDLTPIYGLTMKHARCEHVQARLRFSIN

Liver microsome = test: Drug metabolism in human liver microsomes assessed as glucuronidated parent compound level after 3 hrs; format: ADME
[11] = Plasma protein binding in cynomolgus monkey at 5 uM after 4 hrs by equilibrium dialysis technique; format: ADME, cell-free, Macaca fascicularis; conditions: read-out: PPB (converted)
Rattus norvegicus = test: Unbound clearance in Sprague-Dawley rat at 1 mg/kg, po and 0.5 mg/kg, iv; format: ADME, organism-based; conditions: in vivo
Cytochrome P450 3A4 = Cytochrome P450 3A4 (Homo sapiens, UniProt P08684); test: Induction of CYP3A4 in human hepatocytes; format: ADME, cell-based, Hepatocyte
Chain of Cytochrome P450 3A4 (P08684 whole entry): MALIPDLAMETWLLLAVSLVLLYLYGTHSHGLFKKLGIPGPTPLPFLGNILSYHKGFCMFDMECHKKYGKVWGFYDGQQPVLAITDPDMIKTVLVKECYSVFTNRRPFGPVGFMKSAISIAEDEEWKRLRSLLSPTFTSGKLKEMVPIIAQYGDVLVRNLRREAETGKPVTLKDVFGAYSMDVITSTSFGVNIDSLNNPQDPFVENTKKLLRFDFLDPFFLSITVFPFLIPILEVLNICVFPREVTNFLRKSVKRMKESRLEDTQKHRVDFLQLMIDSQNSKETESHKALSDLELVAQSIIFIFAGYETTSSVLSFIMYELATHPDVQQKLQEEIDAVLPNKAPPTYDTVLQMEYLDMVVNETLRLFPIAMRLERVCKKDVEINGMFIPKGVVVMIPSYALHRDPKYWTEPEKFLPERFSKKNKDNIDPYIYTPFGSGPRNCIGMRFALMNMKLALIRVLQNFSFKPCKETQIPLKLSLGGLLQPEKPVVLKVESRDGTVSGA

[12] = Thermodynamic solubility of the crystalline form of compound at pH 7.4; format: physicochemical; conditions: read-out: Therm_solubility
Cynomolgus monkey = test: Unbound clearance in cynomolgus monkey at 1 mg/kg, po and 0.5 mg/kg, iv; format: ADME, organism-based, Macaca fascicularis; conditions: in vivo
[13] = biological target: Aurora kinase B (Homo sapiens) (UniProt Q96GD4); test: Inhibition of aurora-B (unknown origin) at 0.1 uM relative to control
Chain of Aurora kinase B (Homo sapiens) (Q96GD4 whole entry): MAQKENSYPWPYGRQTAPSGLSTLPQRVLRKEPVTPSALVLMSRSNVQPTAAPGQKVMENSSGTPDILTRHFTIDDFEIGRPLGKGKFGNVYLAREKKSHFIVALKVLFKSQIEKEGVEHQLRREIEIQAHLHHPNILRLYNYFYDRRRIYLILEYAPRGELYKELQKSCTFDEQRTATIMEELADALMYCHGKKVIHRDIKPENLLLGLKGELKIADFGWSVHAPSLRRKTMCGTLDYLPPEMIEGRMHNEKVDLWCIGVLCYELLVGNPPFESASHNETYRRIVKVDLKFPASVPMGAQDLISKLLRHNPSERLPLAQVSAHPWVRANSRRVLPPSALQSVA

[14] = biological target: Ribosomal protein S6 kinase alpha-3 (Homo sapiens) (UniProt P51812); test: Inhibition of RSK2 (unknown origin) at 0.1 uM relative to control
[15] = biological target: Ribosomal protein S6 kinase alpha-2 (Homo sapiens) (UniProt Q15349); test: Inhibition of RSK3 (unknown origin) at 0.1 uM relative to control
Chain of Ribosomal protein S6 kinase alpha-2 (Homo sapiens) (Q15349 whole entry): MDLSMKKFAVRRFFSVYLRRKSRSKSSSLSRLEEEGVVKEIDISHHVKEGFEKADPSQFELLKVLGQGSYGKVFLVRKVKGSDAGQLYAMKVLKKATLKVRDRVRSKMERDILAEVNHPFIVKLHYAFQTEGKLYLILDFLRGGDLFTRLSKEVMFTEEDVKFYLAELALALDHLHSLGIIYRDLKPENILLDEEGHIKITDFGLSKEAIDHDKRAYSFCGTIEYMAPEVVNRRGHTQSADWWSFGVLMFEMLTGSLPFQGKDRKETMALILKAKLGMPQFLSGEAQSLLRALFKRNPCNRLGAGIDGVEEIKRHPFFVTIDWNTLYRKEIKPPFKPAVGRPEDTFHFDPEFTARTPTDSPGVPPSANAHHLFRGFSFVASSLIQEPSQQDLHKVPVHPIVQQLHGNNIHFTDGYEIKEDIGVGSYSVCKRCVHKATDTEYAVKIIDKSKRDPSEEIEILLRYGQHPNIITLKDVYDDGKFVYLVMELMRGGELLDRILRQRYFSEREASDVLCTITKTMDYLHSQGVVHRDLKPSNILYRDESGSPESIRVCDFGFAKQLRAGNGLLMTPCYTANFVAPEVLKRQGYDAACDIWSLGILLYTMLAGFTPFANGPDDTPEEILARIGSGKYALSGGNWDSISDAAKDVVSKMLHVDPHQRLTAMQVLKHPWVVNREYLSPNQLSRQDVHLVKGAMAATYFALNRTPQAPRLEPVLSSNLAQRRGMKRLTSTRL

[16] = Clearance in human hepatocytes at 1 uM by LC-MS/MS analysis; format: ADME, cell-based, Hepatocyte
[17] = Half life in cynomolgus monkey at 0.5 mg/kg, iv; format: ADME, organism-based, Macaca fascicularis; set-up: dose 0.5 mg/kg, route intravenous; conditions: in vivo
Cytochrome P450 2B6 = biological target: T4, Cytochrome P450 2B6 (Homo sapiens, UniProt P20813); test: Induction of CYP2B6 in human hepatocytes; format: ADME, cell-based, Hepatocyte
T4 sequence (P20813 whole entry): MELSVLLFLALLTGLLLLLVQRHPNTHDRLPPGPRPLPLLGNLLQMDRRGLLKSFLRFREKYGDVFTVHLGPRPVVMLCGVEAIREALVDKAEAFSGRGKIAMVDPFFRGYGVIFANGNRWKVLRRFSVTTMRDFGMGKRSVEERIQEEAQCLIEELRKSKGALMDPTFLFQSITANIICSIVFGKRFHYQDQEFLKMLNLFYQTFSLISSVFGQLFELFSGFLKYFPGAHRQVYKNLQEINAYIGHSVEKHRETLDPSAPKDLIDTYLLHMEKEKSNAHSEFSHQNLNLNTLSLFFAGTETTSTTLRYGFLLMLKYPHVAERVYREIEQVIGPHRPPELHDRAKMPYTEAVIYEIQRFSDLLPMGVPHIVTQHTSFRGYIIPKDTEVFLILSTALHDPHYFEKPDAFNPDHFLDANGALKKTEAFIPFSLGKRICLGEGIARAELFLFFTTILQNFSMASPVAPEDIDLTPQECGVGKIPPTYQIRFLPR

Cytochrome P450 1A2 [18] = biological target: T3, Cytochrome P450 1A2; test: Induction of CYP1A2 in human hepatocytes; format: ADME, cell-based, Hepatocyte
[19] = Oral bioavailability in Sprague-Dawley rat at 50 mg/kg; format: ADME, organism-based; conditions: in vivo
[20] = Oral bioavailability in cynomolgus monkey at 1 mg/kg; format: ADME, organism-based, Macaca fascicularis; conditions: in vivo

Question: With `CNc1nc(Nc2cnn(CC(C)(C)O)c2Cl)ncc1C(F)(F)F` as the compound, how does the bioavailability [1] read?
Answer: 5%

Question: What about the Ratio Ki (Homo sapiens) of the same compound?
Answer: > 150

Question: Which results are given for `CNc1nc(Nc2cn(C(C)(C)C#N)nc2C)ncc1C(F)(F)F` [DNL-201]?
Answer: Ki [2]: 0.7 nM; IC50 [3]: 3 nM; IC50 (Mus musculus): 3 nM; inhibition (Mus musculus): Dose-dependent effect; Kp uu [4]: 0.6; inhibition [5]: 62%; Drug metabolism (Hepatocyte): Not Active; CLhep predicted at 1 µM [6]: 25 mL/min/kg; clearance [7]: 19.7 mL/min/kg; clearance [8]: 44 mL/min/kg; Ki [9]: 150 nM; IC50 (Cytochrome P450 1A2 [10]): 700 nM; Drug metabolism (Liver microsome): Not Active; fraction unbound at 4 h, 5 µM [11]: 0.197; CL free (Rattus norvegicus): 210 mL/min/kg; Activity (Cytochrome P450 3A4): Active; solubility thermodynamic [12]: 100 µg/mL (≈ 295 µM); CL free (Cynomolgus monkey): 100 mL/min/kg; inhibition [13]: 51%; inhibition [14]: 52%; inhibition [15]: 68%; CLhep predicted at 1 µM [16]: 3 mL/min/kg; half-life [17]: 2.2 h; Activity (Cytochrome P450 2B6): Active; Activity (Cytochrome P450 1A2 [18]): Active; bioavailability [19]: 88%; bioavailability [20]: 35%
